# Columns and labels:
# AKT1 = AKT1 (Homo sapiens, UniProt P31749); experiment: Biochemical assay for inhibitors of AKT1 kinase activity (33P trans-phosphorylation, Dowex resin); design: made in house; settings: 5 nM enzyme, 132 microM ATP, 30 microM peptide substrate; read-out: AKT1 IC50 (µM) Biochem assay
# Experimental: (§1) The N-terminal GST fusion proteins used for the assays were prepared according to the methods described in Kumar, C. C. Biochem. Biophys. ACTA 2001, 1526, 257-268, and in Alessi, D. R.. Biochem. J. 1998 331, 299-308.
# The inhibitory activity of putative kinase inhibitors and the potency of selected compounds were determined using a trans-phosphorylation assay.
# A specific substrate was incubated with the kinase in appropriate buffer conditions in the presence of ATP traced with ^33P-γ-ATP (gamma phosphate-labeled, Redivue™ Code Number AH9968, 1000-3000Ci/mmole, Amersham Biosciences Piscataway, NJ, USA), optimal cofactors and test compound.
# At the end of the phosphorylation reaction, more than 98% cold and radioactive ATP were captured by an excess of Dowex ion exchange resin. The resin was allowed to settle to the bottom of reaction wells by gravity. Supernatant, containing substrate peptide, was subsequently withdrawn and transferred into a counting plate, and radioactivity (corresponding to phosphate incorporated into peptide) was evaluated by β-counting.
# Kinase buffer was composed of 50 mM TRIS pH 7.5 containing10 mM MgCl2, 1 mM DTT, 3 microM Na3VO4, and 0.2 mg/mL BSA. 3X KB is buffer of the same composition and pH as KB, but with three times the concentration of each component. iii.Assay conditions (final concentrations) for AKT1.
# The kinase assay was run with a final enzyme concentration of 5 nM, in the presence of 132 microM ATP, 0.88 nM ^33P-γ-ATP and 30 microM substrate, a carboxy-terminally biotinylated peptide of the following sequence: ARKRERTYSFGHHA-biotin. The peptide was obtained in batches of >95% peptide purity from PRIMM labs Inc. (Boston MA, USA).
# The "test" mixture of 15 microL consisting of: • 1) 5 µl/well of 3x Enzyme mix (done in Kinase Buffer 3X), • 2) 5 µl/well of 3x substrate and ATP mix (done in ddH2O), together with ^33P-γ-ATP, • 3) 5 µl/well of 3x test compounds (diluted into ddH2O - 3% DMSO).
# For % inhibition studies, dilution plates at 1 mM, 10 microM and 100 microM were prepared in 100% DMSO, then diluted to 3X final desired concentration (30, 3 and 0.3 microM) in ddH2O, 3% DMSO. A Multimek 96 (Beckman Coulter, Inc. 4300 N. Harbor Boulevard, P.O. Box 3100 Fullerton, CA 92834-3100 USA) was used for compound pipetting into test plates.
# For IC50 determination, starting solutions of 30 microM compound in 3% DMSO were derived from 1 mM/100% DMSO stock solutions. These 30 microM starting solutions were used for generation of a further 9 serial 1/3 dilutions in ddH20, 3% DMSO, so as to generate a 10-point dilution curve at 3X the final assay concentration. Serial dilution was conducted in 96-well plates using a Biomek 2000 (Beckman Coulter) system. Dilution curves of 7 compounds/plate were prepared, and each plate also included a 10-point dilution curve of Staurosporine, as well as several negative and positive control wells.
# 384-well plates, V bottom (test plates) are prepared with 5 µl of the compound dilution (3X) and then placed onto a PlateTrak 12 robotized station (Perkin Elmer; the robot has one 384-tips pipetting head for starting the assay plus one 96-tips head for dispensing the resin) together with one reservoir for the Enzyme mix (3X) and one for the ATP mix (3X).
# At the start of the run, the robot aspirates 5 µl of ATP mix, makes an air gap inside the tips (3 µl) and aspirates 5 µl of AKT mix. The following dispensation into the plates allows the kinase reaction to start upon 3 cycles of mixing, done by the robot itself.
# The robot incubates the plates for 60 minutes at room temperature, and then stops the reaction by pipetting 70 µl of dowex resin suspension into the reaction mix. Three cycles of mixing are done immediately after the addition of the resin.
# Another mixing cycle is performed after all the plates are stopped, this time using normal tips: the plates are then allowed to rest for about one hour in order to maximize ATP capture. […]
# AKT3 = AKT3 (Homo sapiens, UniProt Q9Y243); experiment: Biochemical assay for inhibitors of AKT3 kinase activity (33P trans-phosphorylation, Dowex resin); settings: 1 nM enzyme, 180 microM ATP, 28.5 microM peptide substrate; read-out: AKT3 IC50 (µM) Biochem assay
# AKT3, sequence (Q9Y243 2-479): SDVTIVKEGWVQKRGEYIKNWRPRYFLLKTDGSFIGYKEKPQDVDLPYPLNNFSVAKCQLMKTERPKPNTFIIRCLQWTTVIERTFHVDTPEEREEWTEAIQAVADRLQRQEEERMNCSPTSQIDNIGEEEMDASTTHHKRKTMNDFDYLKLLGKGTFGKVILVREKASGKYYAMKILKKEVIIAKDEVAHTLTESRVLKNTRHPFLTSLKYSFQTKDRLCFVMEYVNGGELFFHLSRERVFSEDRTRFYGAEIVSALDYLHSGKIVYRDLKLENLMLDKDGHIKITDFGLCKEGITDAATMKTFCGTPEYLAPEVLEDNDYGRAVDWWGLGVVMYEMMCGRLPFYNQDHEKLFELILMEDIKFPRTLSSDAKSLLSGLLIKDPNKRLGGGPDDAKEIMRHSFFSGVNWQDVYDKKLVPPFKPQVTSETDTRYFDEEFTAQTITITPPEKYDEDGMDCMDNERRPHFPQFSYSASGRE
# Experimental: as §1
# (§2) The in vitro kinase inhibition assay was conducted in the same way as described for AKT1. The kinase assay was run with a final enzyme concentration of 1 nM, in the presence of 180 microM ATP, 0.88 nM ^33P-γ-ATP and 28.5 microM substrate, a carboxy-terminally biotinylated peptide of the following sequence: ARKRERTYSFGHHA-biotin. The peptide was obtained in batches of >95% peptide purity from PRIMM labs Inc. (Boston MA, USA).
# AKT2 = molecular target: T1, AKT2 (Homo sapiens, UniProt P31751); experiment: Biochemical assay for inhibitors of AKT2 kinase activity (33P trans-phosphorylation, Dowex resin); settings: 10 nM enzyme, 396 microM ATP, 8.5 microM peptide substrate; read-out: AKT2 IC50 (µM) Biochem assay
# T1 construct: made in house
# T1 sequence (P31751 whole entry, species assumed): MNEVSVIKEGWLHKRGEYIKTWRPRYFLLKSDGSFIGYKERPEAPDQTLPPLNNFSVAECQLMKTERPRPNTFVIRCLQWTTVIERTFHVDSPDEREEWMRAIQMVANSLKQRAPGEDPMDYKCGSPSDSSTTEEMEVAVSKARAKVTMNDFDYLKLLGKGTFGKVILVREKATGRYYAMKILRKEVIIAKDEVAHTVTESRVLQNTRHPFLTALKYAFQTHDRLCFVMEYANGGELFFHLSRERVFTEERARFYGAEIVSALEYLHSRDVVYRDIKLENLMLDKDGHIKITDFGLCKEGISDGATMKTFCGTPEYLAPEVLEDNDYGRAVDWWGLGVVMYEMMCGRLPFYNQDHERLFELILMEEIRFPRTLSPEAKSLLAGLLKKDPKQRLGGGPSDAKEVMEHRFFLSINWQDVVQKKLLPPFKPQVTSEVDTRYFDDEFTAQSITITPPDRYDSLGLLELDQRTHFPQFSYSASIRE
# Experimental: as §1
# as §2, with “of 10” for “of 1”, “of 396” for “of 180”, “and 8.5” for “and 28.5”
# AKT1, sequence (P31749 whole entry, the tested form may be a part): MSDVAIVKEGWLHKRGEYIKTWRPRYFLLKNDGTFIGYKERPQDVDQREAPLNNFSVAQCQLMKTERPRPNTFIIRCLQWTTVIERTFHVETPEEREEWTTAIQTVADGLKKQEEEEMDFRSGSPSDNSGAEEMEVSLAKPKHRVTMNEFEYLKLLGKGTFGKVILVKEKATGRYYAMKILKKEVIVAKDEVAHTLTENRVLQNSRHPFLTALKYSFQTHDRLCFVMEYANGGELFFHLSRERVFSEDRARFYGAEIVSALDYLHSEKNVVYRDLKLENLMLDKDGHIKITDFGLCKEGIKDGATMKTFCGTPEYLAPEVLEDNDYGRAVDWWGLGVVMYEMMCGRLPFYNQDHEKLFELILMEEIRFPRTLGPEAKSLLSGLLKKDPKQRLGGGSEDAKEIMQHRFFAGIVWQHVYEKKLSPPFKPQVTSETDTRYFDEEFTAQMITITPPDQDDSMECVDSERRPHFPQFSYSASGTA
IC50 (AKT1) [µM],IC50 (AKT3) [µM],IC50 (AKT2) [µM],Structure (SMILES)
0.132,0.717,0.797,"NC[C@H](Cc1ccccc1)NC(=O)c1cc2c3c(nccc3c1)NC2 [Cpd. 7, N-[(1S)-2-amino-1-benzylethyl]-1,2-dihydropyrrolo[4,3,2-ij]isoquinoline-4-carboxamide]"
0.431,1.06,1.86,"O=C(N[C@H](CN1CCCC1)c1ccccc1)c1cc2c3c(nccc3c1)NC2 [Cpd. 8, N-[(1S)-1-phenyl-2-pyrrolidin-1-ylethyl]-1,2-dihydropyrrolo[4,3,2-ij]isoquinoline-4-carboxamide]"

# Source: patent publication EP2002836B1, “Cyclocondensed azaindoles active as kinase inhibitors” (Nerviano Medical Sciences S.r.l., priority 2007, dated 2008)
